Test results: patent US10472334B2, “Small molecules for inhibiting male fertility” (The University of North Carolina at Chapel Hill, priority 2014, dated 2019)
pIC50: −log10 of the molar value.

Experiments:
[1] = In vitro metabolism, human liver microsomes; assay type: in vitro ADME; conditions: read-out: Human liver microsomes metabolism T½
Description: In vitro metabolism was evaluated using the methods described in Obach, R. S. et al. (1997), J. Pharmacol. Exp. Ther., 283: 46-58.
Intrinsic Clearance (microsomes, S9, cryopreserved hepatocytes, recombinant CYP, recombinant UGT) Metabolic stability, expressed as percent of the parent compound remaining, was calculated by comparing the peak area of the compound at the time point relative to that at time-O. The half-life (T½) was estimated from the slope of the initial linear range of the logarithmic curve of compound remaining (%) vs. time, assuming the first-order kinetics. The apparent intrinsic clearance (CLint, in μL/min/pmol, μL/min/mg or μL/min/Mcell) was calculated according to the following formula: […]

[2] = Aqueous solubility (nephelometric method); assay type: physicochemical; conditions: at 100 μM
Description: Solutions of the test compound were prepared from DMSO stock solution at the specified test concentrations. The solutions were mixed thoroughly and aliquoted into a 384-well plate, incubated for 1 hour at 37° C., and the degree of light scattering in each solution was measured at 635 nm using a laser-based microplate nephelometer. The mean nephelometric reading at each concentration was calculated and compared to that of the blank solution and a positive control (a solution of latex at a minimum concentration sufficient to give a mean reading higher than that of blank solution, as determined by a calibration curve). The compound was judged to be soluble at a specific concentration if the mean reading was less than the reading of the positive control. In cases where the mean reading was greater than or equal to the positive control, the solution was reported as having a precipitate and a percent precipitation value was calculated using the following formula: % precipitation=(mean test compound−mean blank)/(mean positive control−mean blank)×100

[3] = test system: human spermatozoa; experiment: Internal sperm pH detection with BCECF; assay type: cell-based; conditions: FIG. 6, 10 and 20 μM
Description: A series of experiments was performed to determine the mechanism of action of the compounds described herein. The experiments were carried out as described in O'Rand and Widgren, “Loss of Calcium in Human Spermatozoa via EPPIN, the Semenogelin Receptor,” Biology of Reproduction, (2012) 86(2):55, 1-7.
The AM ester derivative of the pH-sensitive dye BCECF (5 μM; Molecular Probes) was used to detect changes in the pH in spermatozoa treated with SEMG1. Spermatozoa were loaded with BCECF-AM for 30 min in bovine serum albumin-free medium, centrifuged to remove extracellular dye, and resuspended in M16M. Changes to 1.13105-0.93105 spermatozoa/well in 50 μl of M16M at 378 C after treatment with 3.2 μM SEMG1 were monitored in a BioTek (Winookski, Vt.) Synergy2 Multiplatform automated plate reader (with heater and shaker); wells were excited using a 485/20 filter and emission read with a 528/20 filter. Fluorescence was read immediately and recorded every 10 sec; readings for each time point were normalized, averaged, and expressed as percentages of decrease in relative fluorescent units. Data from three ejaculate samples are reported.

[4] = biological target: T1, recombinant human EPPIN (Homo sapiens, UniProt O95925); experiment: AlphaScreen epitope assay: inhibition of anti-EPPIN (S21C, C-terminal domain) antibody binding to histidine-tagged recombinant human EPPIN; conditions: Figure 2; TZ4_121 concentration-response, percent of control value vs. log concentration; His-tagged rhEPPIN (E. coli, lacks part of N-terminal secretory signal) on NTA-donor beads, anti-EPPIN S21C on protein A-acceptor beads; spread printed +/- 10.4
T1 construct: His-tagged (FLAG tag also stated); E. coli M15[pREP-4], Ni-NTA purified; AlphaScreen with anti-EPPIN S21C antibody
T1 sequence (O95925 22-133): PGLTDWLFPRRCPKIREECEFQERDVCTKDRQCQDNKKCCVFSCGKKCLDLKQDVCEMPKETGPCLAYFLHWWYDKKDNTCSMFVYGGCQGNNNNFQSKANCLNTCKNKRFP
Text: Two assays for high throughput screening (HTS) of compounds have been established and validated. In one embodiment, these assays are based on an adaptation of the AlphaScreen™ assay developed by PerkinElmer (Waltham, Mass.). In the AlphaScreen™ (amplified luminescent proximity homogeneous assay) assay donor and acceptor beads (˜200 nm) are employed to hold interacting protein molecules. When the interacting protein molecules bind (for example EPPIN {on the donor bead} and anti-EPPIN {on the acceptor bead}), singlet state oxygen molecules diffuse from the donor bead to the acceptor bead (˜4 μsec) and fluorophores subsequently emit light at 520-620 nm. In the primary compound screen, histidine-tagged recombinant human EPPIN is attached to NTA-donor beads and anti-EPPIN (S21C; against the EPPIN C-terminal domain) is attached to protein A-acceptor beads. This epitope specific assay gives strong and stable binding between EPPIN and the antibody. […]

CCOC(=O)CSc1nc(NNC(=O)OC)nc(Nc2ccc(NC(=O)OC)c(O)c2)n1 [TZ4_121, [4-(3-Hydroxy-4-methoxycarbonylamino-phenylamino)-6-(N′methoxycarbonyl-hydrazino)-1,3,5-triazin-2-ylsulfanyl]-acetic acid ethyl ester]
half-life [1]: 41 min
solubility [2]: Good
change in internal sperm pH [3]: significant decrease in pH
pIC50 [4]: 4.42
